Values quoted from earlier work as cited in publication PMC4364779, “IMD-4690, a Novel Specific Inhibitor for Plasminogen Activator Inhibitor-1, Reduces Allergic Airway Remodeling in a Mouse Model of Chronic Asthma via Regulating Angiogenesis and Remodeling-Related Mediators” (PLoS ONE, 2015).

Test system: murine model of chronic asthma
Set-up: method as in PMID 22323366
Conditions: cited from earlier work

O=C(O)C(=O)c1cn(Cc2ccccc2)c2ccc(-c3ccc(OC(F)(F)F)cc3)cc12 [tiplaxtinin]
Allergic airway inflammation and lung collagen deposition: attenuated
